In test [1] the test system is Primary rat hepatocytes. Description: Cell viability and apoptosis assays, TGF-β1-exposed hepatocytes. The format is cell-based. Particulars: 100 μM, with or without 3 U/ml alkaline phosphatase, TGF-β1 24 h. How it is done: Cell culture and treatments. Primary rat hepatocytes were isolated from male rats (100-150 g) by collagenase perfusion. Briefly, rats were anesthetized with phenobarbital sodium (100 mg/kg body weight) injected into the peritoneal cavity. After administration of heparin (200 units/kg body weight) in the tail vein, the animals' abdomen was opened and the portal vein exposed and cannulated. The liver was then perfused at 37° C. in situ with a calcium-free Hanks' Balanced Salt Solution (HBSS) for ˜10 min, and then with 0.05% collagenase type IV in calcium-present HBSS for another 10 min. […] Cell viability was determined by trypan blue exclusion and was typically 80-85%. […]
Cell viability assays. […] Finally, absorbance was measured at 490 nm, with 690 nm as reference, using a Bio-Rad model 680-microplate reader (Bio-Rad Laboratories, Hercules, Calif., USA).
To assess cellular viability, the CellTiter-Fluor™ viability assay was used (Promega Corp., Madison, Wis., USA). Briefly, viable cells are measured using a fluorogenic, cell-permeant, peptide substrate (Gly-Phe-AFC), which is cleaved by the live-cell protease activity to generate a fluorescent signal proportional to the number of living cells. Cells were incubated with an equal volume of CellTiter-Fluor™ Reagent for 30 min at 37° C. and resulting fluorescence (380-400 nmEx/505 nmEm) measured using a GloMax+ Multi Detection System (Promega Corp.). […]

Test [2] deals with Alkaline phosphatase from bovine intestinal mucosa. The experiment in a line: Alkaline phosphatase activation of prodrugs (31P NMR). Particulars: in vitro, FIG. 5. The class given is biochemical. How it is done:
Alkaline phosphatase activation of prodrugs 3 and 19d. Alkaline phosphatase from bovine intestinal mucosa (Sigma-Aldrich, P5521-2KU) was dissolved in 2.0 mL of a 0.100 M sodium glycine buffer containing 1.0 mM ZnCl2 and 1.0 mM MgCl2. This stock solution was stored at 4° C. between uses.
Compound 19d (10.0 mg, 0.016 mmol) or compound 3 (8.7 mg, 0.016 mmol) were dissolved in 0.6 mL of a 0.100 M tris glycine buffer solution containing 1.0 mM ZnCl2 and 1.0 mM MgCl2. […] 50 μL of the previously prepared AP stock solution was further diluted by addition to 0.950 mL of a 0.100 M tris glycine buffer containing 1.0 mM ZnCl2 and 1.0 mM MgCl2. 10.0 μL of this diluted AP solution was added to the prodrug solution by syringe. A series of 42 inverse-gated decoupled ^31P NMR's were taken (24 scans each, approximately one minute acquisition time). Conversion (%) was determined from the relative integration of the starting material and product peaks, NMR time stamps were used to determine time. Each experiment was repeated three times.

Regarding `CC(CCC(=O)OCOP(=O)(O)O)C1CCC2C3C(O)CC4CC(O)CCC4(C)C3CCC12C` (centres unmarked) [Compound 19, ursodeoxycholic acid phosphonooxymethoxy ester], the “anti-apoptotic potency in in vitro assays” value in test [1] was “highly active in these assays, but required activation by exogenous alkaline phosphatase”. In test [2], the “rate of alkaline phosphatase catalyzed release of UDCA” value is “faster than prodrug 3”.

Values taken from US20210122780A1, “COMPOSITIONS FOR THE PREVENTION AND TREATMENT OF PARKINSON'S DISEASE” (Metselex, Inc., priority 2018, published 2021).
